Consider two compounds from patent US20030064380A1, “Anergy-regulated molecules” (The Center For Blood Research, Inc., priority 2001, published 2003).

Residues, ends and D or L forms follow the SMILES beside them. *: point of attachment. Cbz = O=C(OCc1ccccc1)*; CH2F = FC*

The test relates to primary Th1 cells. Kind of test: protease inhibitors assay: recovery of antigen responses of anergised primary Th1 cells (ELISA or RNase protection). It is filed as cell-based, mice. The conditions noted are these: single inhibitor, two experiments. As for the experimental part:
Th1 cells were anergised by pretreatment with 1 μg/ml plate-bound antiCD3ε in the presence of 100 μM Z-VAD.fink (Clabiochem), 5 μM NLVS (Calbiochem) and/or 10 μM lactacystein (Calbiochem) for 16 hours. After that, cells were washed three times and left resting for 48-72 hours.
Whether anergy could be prevented by including caspase and proteasome inhibitors in the first step of pretreatment with ionomycin or anti-CD3 was tested to evaluate the functional importance of proteolytic pathways in anergy induction. […] The variability likely reflects the fact that the proteasome inhibitors are toxic, and needed to be washed away hours to days before the assay stimuli (antigen/APC or anti-CD3/anti-CD28) were applied. […] Similar results were obtained with the D5 T cell clone. Thus directed proteolysis of signaling proteins may be one of several mechanisms that cooperate to maintain lymphocyte anergy.

Consider `COC(=O)C[C@H](NC(=O)[C@H](C)NC(=O)[C@@H](NC(=O)OCc1ccccc1)C(C)C)C(=O)CF` [ZVAD] (Cbz-Val-Ala-Asp(OMe)-CH2F), for which the “recovery of IL-2 production” value worked out at 90%.

For the compound `CC(C)CC(C=CS(C)(=O)=O)NC(=O)C(CC(C)C)NC(=O)C(CC(C)C)NC(=O)Cc1cc(I)c(O)c([N+](=O)[O-])c1` (centres unmarked) [NLVS], the “recovery of IL-2 production” value was 112%.
